# Patent US20230135093A1, “TRIAZOLYL DERIVATIVES AS GABA A ALPHA5 PAM” (Hoffmann-La Roche Inc., priority 2020, published 2023)
# Assays:
# h-GABA-A α5β3γ2 [1] = target: T1, h-GABA-A α5β3γ2 (Homo sapiens, UniProt P18507+P31644); experiment: [3H]flumazenil competition binding assay on membranes of HEK293 cells expressing GABAA receptors; settings: Table 1; displacement of [3H]-Flumazenil (0.5 nM), HEK293 cells expressing human receptors, means of two determinations
# T1 construct: expressed in transfected cells; host or cells: Xenopus laevis oocytes, micro-injected with subunit RNA
# Method in brief: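 Competition for [3H]flumazenil (0.5 nM for α5 subunits) was measured at equilibrium (1 h, 4 °C, Krebs-tris buffer pH 7.5) on transiently transfected HEK293 membranes bearing human α5β3γ2 receptors, with 10^−5 M diazepam defining nonspecific binding. Ki values were derived from filtration and scintillation counting, averaged over duplicates.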
# h-GABA-A α5β3γ2 [2] = target: T1, h-GABA-A α5β3γ2; experiment: Two-electrode voltage clamp electrophysiology in Xenopus oocytes expressing GABAA receptors (modulation of GABA EC20 current); assay type: cell-based; settings: Table 1; for Efficacy (GABA) %: % modulation of GABA EC20 = 100*(Fold increase-1); for Fold increase h-GABA-A α5β3γ2 oocyte: Xenopus oocytes, GABA EC20, test compound at approximatively 30 fold its Ki
# Method in brief: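 GABA EC20 currents in human α5β3γ2-expressing Xenopus oocytes, voltage-clamped at −80 mV (room temperature, pH 7.4), measured with and without compound at ~30× Ki applied 0.5 min into the second GABA pulse. % modulation = 100×(fold increase−1), taken from the extremum of the current ratio trace; at least 3 oocytes per concentration.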
Structure (SMILES),Ki (h-GABA-A α5β3γ2 [1]) [nM],Efficacy (GABA) % (h-GABA-A α5β3γ2 [2]) [%],Fold increase h-GABA-A α5β3γ2 oocyte (h-GABA-A α5β3γ2 [2])
"COc1ccc(-c2cnn(Cc3c(C)nnn3-c3ccc(Cl)cc3F)c(=O)c2)cc1 [Example 56, 2-((3-(4-chloro-2-fluoro-phenyl)-5-methyl-triazol-4-yl)methyl)-5-(4-methoxyphenyl)pyridazin-3-one]",21.6,50,1.5
"Cc1nnn(-c2ccc(Cl)cc2F)c1Cn1ncc(-c2ccnc(C(F)(F)F)c2)cc1=O [Example 57, 2-((3-(4-chloro-2-fluoro-phenyl)-5-methyl-triazol-4-yl)methyl)-5-(2-(trifluoromethyl)-4-pyridyl)pyridazin-3-one]",43,64,1.64
"Cn1nnc(-c2ccc(Cl)cc2)c1Cn1ncc(N2CC(OCC(F)(F)F)C2)cc1=O [Example 59, 2-[[5-(4-chlorophenyl)-3-methyl-triazol-4-yl]methyl]-5-[3-(2,2,2-trifluoro-ethoxy)azetidin-1-yl]pyridazin-3-one]",37.1,81,1.81
"Cn1nnc(-c2ccc(Cl)cc2)c1Cn1ncc(N2CC(OCC(F)F)C2)cc1=O [Example 60, 2-[[5-(4-chlorophenyl)-3-methyl-triazol-4-yl]methyl]-5-[3-(2,2-difluoro-ethoxy)azetidin-1-yl]pyridazin-3-one]",45,76,1.76
"COc1ccc(-c2cnn(Cc3c(-c4ccc(Cl)cc4F)nnn3C)c(=O)c2)cc1 [Example 61, 2-((5-(4-chloro-2-fluoro-phenyl)-3-methyl-triazol-4-yl)methyl)-5-(4-methoxyphenyl)pyridazin-3-one]",2.6,52,1.52
"COc1ccc(-c2cnn(Cc3c(-c4ccc(Cl)cc4F)nnn3C)c(=O)c2)cn1 [Example 62, 2-((5-(4-chloro-2-fluoro-phenyl)-3-methyl-triazol-4-yl)methyl)-5-(6-methoxy-3-pyridyl)pyridazin-3-one]",8.2,50,1.5
"COc1cc(-c2cnn(Cc3c(-c4ccc(Cl)cc4F)nnn3C)c(=O)c2)ccn1 [Example 63, 2-((5-(4-chloro-2-fluoro-phenyl)-3-methyl-triazol-4-yl)methyl)-5-(2-methoxy-4-pyridyl)pyridazin-3-one]",2.2,42,1.42
"Cn1cc(-c2cnn(Cc3c(-c4ccc(Cl)cc4F)nnn3C)c(=O)c2)cn1 [Example 64, 2-((5-(4-chloro-2-fluoro-phenyl)-3-methyl-triazol-4-yl)methyl)-5-(1-methylpyrazol-4-yl)pyridazin-3-one]",11.2,76,1.76
"Cc1nnn(-c2ccc(Cl)cc2F)c1Cn1ncc(-c2cnn(C3CC3)c2)cc1=O [Example 65, 2-((3-(4-chloro-2-fluoro-phenyl)-5-methyl-triazol-4-yl)methyl)-5-(1-cyclopropylpyrazol-4-yl)pyridazin-3-one]",47.5,42,1.42
"CCOc1ncc(-c2cnn(Cc3c(-c4ccc(Cl)cc4F)nnn3C)c(=O)c2)cc1C [Example 66, 2-((5-(4-chloro-2-fluoro-phenyl)-3-methyl-triazol-4-yl)methyl)-5-(6-ethoxy-5-methyl-3-pyridyl)pyridazin-3-one]",19,143,2.43
"Cn1nnc(-c2ccc(Cl)cc2F)c1Cn1ncc(-c2cnn(C3CC3)c2)cc1=O [Example 67, 2-((5-(4-chloro-2-fluoro-phenyl)-3-methyl-triazol-4-yl)methyl)-5-(1-cyclopropylpyrazol-4-yl)pyridazin-3-one]",11,55,1.55
"COc1ncc(-c2cnn(Cc3c(C)nnn3-c3ccc(Cl)cc3F)c(=O)c2)cc1Cl [Example 68, 2-((3-(4-chloro-2-fluoro-phenyl)-5-methyl-triazol-4-yl)methyl)-5-(5-chloro-6-methoxy-3-pyridyl)pyridazin-3-one]",32.2,130,2.3
"COc1ncc(-c2cnn(Cc3c(-c4ccc(Cl)cc4F)nnn3C)c(=O)c2)cc1Cl [Example 69, 2-((5-(4-chloro-2-fluoro-phenyl)-3-methyl-triazol-4-yl)methyl)-5-(5-chloro-6-methoxy-3-pyridyl)pyridazin-3-one]",4.3,125,2.25
"Cn1nnc(-c2ccc(C(F)(F)F)cc2F)c1Cn1ncc(N2CC3(CCCO3)C2)cc1=O [Example 75, 2-[[5-[2-fluoro-4-(trifluoromethyl)phenyl]-3-methyl-triazol-4-yl]methyl]-5-(5-oxa-2-azaspiro[3.4]octan-2-yl)pyridazin-3-one]",23,73,1.73

# More lines, now with the values ahead:
Ki (h-GABA-A α5β3γ2 [1]) [nM],Efficacy (GABA) % (h-GABA-A α5β3γ2 [2]) [%],Fold increase h-GABA-A α5β3γ2 oocyte (h-GABA-A α5β3γ2 [2]),Structure (SMILES)
4.1,55,1.55,"Cn1nnc(-c2ccc(Cl)cc2F)c1Cn1ncc(N2CC(Oc3ccc(Cl)nc3)C2)cc1=O [Example 52, 2-[[5-(4-chloro-2-fluoro-phenyl)-3-methyl-triazol-4-yl]methyl]-5-[3-[(6-chloro-3-pyridyl)oxy]azetidin-1-yl]pyridazin-3-one]"
5.4,69,1.69,"Cn1nnc(-c2ccc(Cl)cc2F)c1Cn1ncc(N2CC(OC(F)F)C2)cc1=O [Example 53, 2-((5-(4-chloro-2-fluoro-phenyl)-3-methyl-triazol-4-yl)methyl)-5-(3-(difluoromethoxy)azetidin-1-yl)pyridazin-3-one]"
6.4,82,1.82,"Cn1nnc(-c2ccc(Cl)cc2F)c1Cn1ncc(N2CC(OCC(F)F)C2)cc1=O [Example 54, 2-[[5-(4-chloro-2-fluoro-phenyl)-3-methyl-triazol-4-yl]methyl]-5-[3-(2,2-difluoro-ethoxy)azetidin-1-yl]pyridazin-3-one]"
5.8,111,2.11,"Cn1nnc(-c2ccc(Cl)cc2F)c1Cn1ncc(N2CC(Oc3ccnc(Cl)c3)C2)cc1=O [Example 55, 2-[[5-(4-chloro-2-fluoro-phenyl)-3-methyl-triazol-4-yl]methyl]-5-[3-[(2-chloro-4-pyridyl)oxy]azetidin-1-yl]pyridazin-3-one]"
7,138,2.38,"C[C@@H]1CN(c2cnn(Cc3c(-c4ccc(F)cc4F)nnn3C)c(=O)c2)C[C@H](C)O1 [Example 58, 2-[[5-(2,4-difluorophenyl)-3-methyl-triazol-4-yl]methyl]-5-[(2R,6S)-2,6-dimethylmorpholin-4-yl]pyridazin-3-one]"
25,71,1.71,"CC(C)OC1CN(c2cnn(Cc3c(-c4ccc(C(F)(F)F)cc4F)nnn3C)c(=O)c2)C1 [Example 70, 2-[[5-[2-fluoro-4-(trifluoromethyl)phenyl]-3-methyl-triazol-4-yl]methyl]-5-(3-isopropoxyazetidin-1-yl)pyridazin-3-one]"
12.2,75,1.75,"Cn1nnc(-c2ccc(C(F)(F)F)cc2F)c1Cn1ncc(N2CC(OC(F)F)C2)cc1=O [Example 71, 5-[3-(difluoromethoxy)azetidin-1-yl]-2-[[5-[2-fluoro-4-(trifluoromethyl)phenyl]-3-methyl-triazol-4-yl]methyl]pyridazin-3-one]"
19.4,70,1.7,"CCOC1CN(c2cnn(Cc3c(-c4ccc(C(F)(F)F)cc4F)nnn3C)c(=O)c2)C1 [Example 72, 5-(3-ethoxyazetidin-1-yl)-2-[[5-[2-fluoro-4-(trifluoromethyl)phenyl]-3-methyl-triazol-4-yl]methyl]pyridazin-3-one]"
7.7,90,1.9,"Cn1nnc(-c2ccc(Cl)cc2F)c1Cn1ncc(N2CC(Oc3cnccn3)C2)cc1=O [Example 73, 2-[[5-(4-chloro-2-fluoro-phenyl)-3-methyl-triazol-4-yl]methyl]-5-(3-pyrazin-2-yloxyazetidin-1-yl)pyridazin-3-one]"
11.8,86,1.86,"Cn1nnc(-c2ccc(C(F)(F)F)cc2F)c1Cn1ncc(N2CC(OCC(F)(F)F)C2)cc1=O [Example 74, 2-[[5-[2-fluoro-4-(trifluoromethyl)phenyl]-3-methyl-triazol-4-yl]methyl]-5-[3-(2,2,2-trifluoro-ethoxy)azetidin-1-yl]pyridazin-3-one]"
11.6,115,2.15,"Cn1nnc(-c2ccc(C(F)(F)F)cc2F)c1Cn1ncc(N2CC(OCC(F)F)C2)cc1=O [Example 76, 5-[3-(2,2-difluoroethoxy)azetidin-1-yl]-2-[[5-[2-fluoro-4-(trifluoromethyl)phenyl]-3-methyl-triazol-4-yl]methyl]pyridazin-3-one]"
